According to patent publication US20260256751A1, “COMBINATION OF BETA-2-ADRENERGIC RECEPTOR AGONISTS AND GLP-1 RECEPTOR AGONISTS FOR USE IN TREATING HYPERGLYCAEMIA” (ATROGI AB, priority 2023, published 2026):

Columns and labels:
[1] = tested on: differentiated L6-myotubes; assay: Glucose uptake screen (Biological example 1 of WO 2019/053427); assay type: cell-based; details: compound at 10 μM, activity relative to isoproterenol at 10 μM; for Emax at 10 µM: read-out: Biological example 1 of WO 2019/053427 (GU)
Procedure, shortened: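 Rat L6 myoblasts were differentiated into myotubes over 7 days in 2% FBS, then serum-starved overnight. Cells were stimulated with 1×10^−5 M compound plus β2 antagonist ICI-118551 for 1 h 40 min and re-dosed for 20 min in glucose-free medium. Uptake of 50 nM ^3H-2-deoxyglucose over 10 min was counted after NaOH lysis.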

[2] = tested on: differentiated L6-myotubes; assay: cAMP production relative to isoprenaline (Biological example 2 of WO 2019/053427); assay type: cell-based; details: 0.25 h, compound at 10 μM, activity relative to isoproterenol at 10 μM
Procedure, shortened: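 Differentiated L6 myotubes stimulated 15 min with test compound or isoprenaline, each at final 1×10^−5 M, in HBSS with 1% BSA, 5 mM HEPES, 1 mM IBMX, pH 7.4. cAMP production by the compound expressed relative to that induced by the same concentration of isoprenaline.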

Row | SMILES | Emax at 10 µM [1] | Emax at 10 µM [2] | Biological example 1 of WO 2019/053427 (GU) [1]
1 | CS(=O)(=O)N[C@H]1CC[C@H](C[C@@H]2CC[C@H]([C@@H](O)c3cccc(F)c3)N2)CC1 [Compound 505, (S)-[(2R,5S)-5-{[(1r,4S)-4-(mesylamino)cyclohexyl]methyl}-2-pyrrolidinyl](m-fluorophenyl)methanol] | < 25% | < 25% | –
2 | CC(C)(C[C@H]1CC[C@H](N)CC1)NC[C@H](O)c1cccc(F)c1 [Compound 371, (R)-2-{1,1-dimethyl-2-[(1r,4R)-4-aminocyclohexyl]ethylamino}-1-(m-fluorophenyl)-1-ethanol] | > 75% | < 25% | –
3 | CCC[C@H]1CCC[C@H]([C@H](O)c2ccc(F)c(F)c2)N1 [Compound 67, (R)-[(2R,6S)-6-propyl-2-piperidyl](3,4-difluorophenyl)methanol] | 25 to 50% | < 25% | –
4 | CC(C)(C[C@H]1CC[C@@H](NC(=O)OC(C)(C)C)CC1)NC[C@H](O)c1cccc(C#N)n1 [Compound 414] | 50 to 75% | < 25% | –
5 | CCOC(=O)CO[C@H]1CC[C@H](C(C)(C)NC[C@H](O)c2cccc(F)c2)CC1 [Compound 398, ethyl[(1R,4r)-4-{1-[(R)-2-(m-fluorophenyl)-2-hydroxyethylamino]-1-methylethyl}cycloehxyloxy]acetate] | > 75% | < 25% | –
6 | CS(=O)(=O)N(Cc1ccccc1)[C@H]1CC[C@@H](C[C@@H]2CC[C@H]([C@@H](O)c3cccc(F)c3)N2)CC1 [Compound 509, (S)-[(2R,5S)-5-({(1s,4R)-4-[(benzyl)-N-mesylamino]cyclohexyl}methyl)-2-pyrrolidinyl](m-fluorophenyl)methanol] | < 25% | < 25% | –
7 | CC1(C)CC[C@H]([C@@H](O)c2cccc(N)c2F)N1 [Compound 226, (S)-[(R)-5,5-dimethyl-2-pyrrolidinyl](3-amino-2-fluorophenyl)methanol] | 25 to 50% | < 25% | –
8 | O[C@H](c1cccc(F)c1)C12CCC(CCc3ccc(Cl)cc3)(CC1)N2 [Compound 528, (R)-{4-[2-(p-chlorophenyl)ethyl]-7-azabicyclo[2.2.1]hept-1-yl}(m-fluorophenyl)methanol] | < 25% | < 25% | –
9 | CS(=O)(=O)Nc1ccc(CC23CCC([C@@H](O)c4cccc(F)c4)(CC2)N3)cc1 [Compound 474, (S)-(m-fluorophenyl)(4-{[p-(mesylamino)phenyl]methyl}-7-azabicyclo[2.2.1]hept-1-yl)methanol] | 50 to 75% | < 25% | –
10 | CC12CC(C1)[C@@H]([C@@H](O)c1cncc(F)c1)N2 [Compound 221, (S)-{(S)-1-methyl-2-azabicyclo[2.1.1]hex-3-yl}(5-fluoro-3-pyridyl)methanol] | 50 to 75% | < 25% | –
11 | CC(C)(CC[C@H]1CC[C@H](NS(C)(=O)=O)CC1)NC[C@H](O)c1cncc(F)c1 [Compound 362, (R)-2-{1,1-dimethyl-3-[(1r,4R)-4-(mesylamino)cyclohexyl]propylamino}-1-(5-fluoro-3-pyridyl)-1-ethanol] | 50 to 75% | < 25% | –
12 | O[C@H](c1cccc(F)c1)C12CCC(Cc3ccc(OC(F)(F)F)cc3)(CC1)N2 [Compound 501, (R)-(m-fluorophenyl){4-[(p-trifluoromethoxyphenyl)methyl]-7-azabicyclo[2.2.1]hept-1-yl}methanol] | < 25% | < 25% | –
13 | Cc1ncccc1[C@@H](O)CNC(C)(C)C[C@H]1CC[C@H](NS(C)(=O)=O)CC1 [Compound 435, (R)-2-{1,1-dimethyl-2-[(1r,4R)-4-(mesylamino)cyclohexyl]ethylamino}-1-(2-methyl-3-pyridyl)-1-ethanol] | 25 to 50% | < 25% | –
14 | CCCCNCC(O)c1ccc(Cl)c(O)c1 (centres unmarked) [Compound 34, 2-(butylamino)-1-(4-chloro-3-hydroxyphenyl)-1-ethanol] | > 75% | < 25% | –
15 | CC12CC(C1)[C@@H]([C@@H](O)c1ccccc1F)N2 [Compound 211, (S)-{(S)-1-methyl-2-azabicyclo[2.1.1]hex-3-yl}(o-fluorophenyl)methanol] | > 75% | < 25% | –
16 | CCC[C@@H]1CCC[C@H]([C@H](O)c2ccc(F)cc2)N1 [Compound 94, (R)-[(2R,6R)-6-propyl-2-piperidyl](p-fluorophenyl)methanol] | 50 to 75% | < 25% | –
17 | COC(=O)[C@H]1CC[C@@H](CCC(C)(C)NC[C@H](O)c2cncc(F)c2)CC1 [Compound 349, methyl (1S,4s)-4-{3-[(R)-2-(5-fluoro-3-pyridyl)-2-hydroxyethylamino]-3-methylbutyl}cyclohexanecarboxylate] | > 75% | 25 to 50% | –

Row | SMILES | Emax at 10 µM [1] | Emax at 10 µM [2] | Biological example 1 of WO 2019/053427 (GU) [1]
18 | CC(C)(C[C@H]1CC[C@H](O)CC1)NC[C@H](O)c1cncc(F)c1 [Compound 299, (R)-2-{1,1-dimethyl-2-[(1r,4R)-4-hydroxycyclohexyl]ethylamino}-1-(5-fluoro-3-pyridyl)-1-ethanol] | 50 to 75% | < 25% | –
19 | CCC[C@H]1CCC[C@H]([C@@H](O)c2cccc(F)c2)N1 [Compound 70, (S)-[(2R,6S)-6-propyl-2-piperidyl](m-fluorophenyl)methanol] | 50 to 75% | < 25% | –
20 | CC(C)(C[C@H]1CC[C@H](N)CC1)NC[C@@H](O)c1cccc(C#N)n1 [Compound 415, 6-[(R)-2-{1,1-dimethyl-2-[(1r,4R)-4-aminocyclohexyl]ethylamino}-1-hydroxyethyl]-2-pyridinecarbonitrile] | 50 to 75% | < 25% | –
21 | COc1ccc(C[C@@H]2CC[C@H]([C@@H](O)c3cncc(F)c3)N2)cc1 [Compound 377, (S)-{(2R,5S)-5-[(p-methoxyphenyl)methyl]-2-pyrrolidinyl}(5-fluoro-3-pyridyl)methanol] | > 75% | < 25% | –
22 | O[C@H](c1ccccc1F)C12CCC(CCc3cccnc3)(CC1)N2 [Compound 444, (R)-(o-fluorophenyl){4-[2-(3-pyridyl)ethyl]-7-azabicyclo[2.2.1]hept-1-yl}methanol] | > 75% | 50 to 75% | –
23 | CC(C)(C[C@H]1CC[C@H](NC(=O)C2CCC2)CC1)NC[C@H](O)c1cccc(F)c1 [Compound 431, N-[(1R,4r)-4-{2-[(R)-2-(m-fluorophenyl)-2-hydroxyethylamino]-2-methylpropyl}cyclohexyl]cyclobutanecarboxamide] | > 75% | 50 to 75% | –
24 | CCC[C@@H]1CCC[C@@H]([C@H](O)c2cccc(O)c2)N1 [Compound 136, (R)-[(2S,6R)-6-propyl-2-piperidyl](m-hydroxyphenyl)methanol] | > 75% | < 25% | –
25 | CC(C)(C)NC[C@H](O)c1cccc(F)c1F [Compound 76, (R)-2-(tert-butylamino)-1-(2,3-difluorophenyl)-1-ethanol] | > 75% | 25 to 50% | –
26 | CCC[C@@H]1CC[C@H]([C@H](O)c2cncc(F)c2)N1 [Compound 160, (R)-[(2R,5R)-5-propyl-2-pyrrolidinyl](5-fluoro-3-pyridyl)methanol] | – | < 25% | +++ (more than 75% of that of isoproterenol at 10 μM)
27 | CO[C@H]1CC[C@@H](CCNC[C@H](O)c2cccc(F)c2)CC1 [Compound 237, (R)-1-(m-fluorophenyl)-2-{2-[(1s,4S)-4-methoxycyclohexyl]ethyl-amino}-1-ethanol] | 50 to 75% | < 25% | –
28 | CCC[C@H]1CCCC[C@@H]([C@H](O)c2cncc(F)c2)N1 [Compound 234, (R)-[(2S,7S)-7-propyl-2-azepanyl](5-fluoro-3-pyridyl)methanol] | > 75% | < 25% | –
29 | CO[C@H]1CC[C@@H](C(C)(C)NC[C@H](O)c2cncc(F)c2)CC1 [Compound 252, (R)-1-(5-fluoro-3-pyridyl)-2-{1-methyl-1-[(1s,4S)-4-methoxycyclohexyl]ethyl-amino}-1-ethanol] | < 25% | < 25% | –
30 | CC1(C)CCC[C@H]([C@@H](O)c2ccccc2F)N1 [Compound 176, (S)-[(R)-6,6-dimethyl-2-piperidyl](o-fluorophenyl)methanol] | > 75% | 25 to 50% | –
31 | CO[C@H]1CC[C@H](CCC23CCC([C@@H](O)c4cccc(F)c4)(CC2)N3)CC1 [Compound 410, (S)-(m-fluorophenyl)(4-{2-[(1r,4R)-4-methoxycyclohexyl]ethyl}-7-azabicyclo[2.2.1]hept-1-yl)methanol] | 50 to 75% | < 25% | –
32 | CCC[C@@H]1CCC[C@@H]([C@H](O)c2cccc(Cl)c2)N1 [Compound 115, (R)-[(2S,6R)-6-propyl-2-piperidyl](m-chlorophenyl)methanol] | > 75% | < 25% | –
33 | CC(=O)N(Cc1ccccc1)[C@H]1CC[C@H](C[C@@H]2CC[C@H]([C@H](O)c3cccc(F)c3)N2)CC1 [Compound 482, N-[(1S,4r)-4-({(2S,5R)-5-[(R)-(m-fluorophenyl)hydroxymethyl]-2-pyrrolidinyl}methyl)cyclohexyl]-N-benzylacetamide] | < 25% | < 25% | –
34 | CC(C)(C[C@H]1CC[C@H](O)CC1)NC[C@H](O)c1cccc(F)c1 [Compound 300, (R)-2-{1,1-dimethyl-2-[(1r,4R)-4-hydroxycyclohexyl]ethylamino}-1-(m-fluorophenyl)-1-ethanol] | > 75% | < 25% | –
